Measured values: patent US20160176867A1, “MODIFIED BET-PROTEIN-INHIBITING DIHYDROQUINOXALINONES AND DIHYDROPYRIDOPYRAZINONES” (BAYER PHARMA AKTIENGESELLSCHAFT, priority 2013, published 2016)

Key:
[1] = target: T1, BRD4 bromo domain 1 [BRD4(1)] (Homo sapiens, UniProt O60885); assay: BRD4/acetylated peptide H4 binding assay (TR-FRET), BRD4 bromo domain 1; conditions: inhibition of BRD4(1)/Ac-H4 peptide interaction
T1 construct: N-terminally His6-tagged BRD4(1) (amino acids 67-152); made in house; host or cells: E. coli
Summary of the method: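 TR-FRET (665/620 nm ratio) measuring displacement of biotinylated tetra-acetylated H4 peptide from His6-BRD4(1) (aa 67-152, E. coli; typically 10 nM) at pH 7.5. Compound (11 concentrations, 0.1 nM–20 μM, duplicates) was preincubated 10 min at 22°C, then 1 h at 22°C and ≥3 h at 4°C; IC50 from 4-parameter fit normalized to DMSO and no-BRD4 controls.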

MOLM-13 cells = assay: Cell proliferation assay (alamarBlue), MOLM-13; type: cell-based; conditions: Homo sapiens; MOLM-13 (acute myeloid leukaemia), 96 hours
Method: (§1) In accordance with the invention, the ability of the substances to inhibit cell proliferation was determined. Cell viability was determined by means of the alamarBlue® reagent (Invitrogen) in a Victor X3 Multilabel Reader (Perkin Elmer). The excitation wavelength was 530 nm and the emission wavelength […].
The MOLM-13 cells (DSMZ, ACC 554) were sown at a concentration of 4000 cells/well in 100 μl of growth medium (RPMI1640, 10% FCS) on 96-well microtitre plates.
(§2) After overnight incubation at 37° C., the fluorescence values were determined (CI values). Then the plates were treated with various substance dilutions (1E-5 M, 3E-6 M, 1E-6 M, 3E-7 M, 1E-7 M, 3E-8 M, 1E-8 M) and incubated at 37° C. over 96 hours (MOLM-13, B16F10, CHL-1 cells) or 120 hours (MOLP-8 cells). Subsequently, the fluorescence values were determined (CO values). For the data analysis, the CI values were subtracted from the CO values and the results were compared between cells which had been treated with various dilutions of the substance or only with buffer solution. The IC50 values (substance concentration needed for 50% inhibition of cell proliferation) were calculated therefrom.

B16F10 cells = assay: Cell proliferation assay (alamarBlue), B16F10; type: cell-based; conditions: Mus musculus, B16-F10; B16F10 (melanoma, BRAF wild-type), 96 hours
Method: as §1
The B16F10 cells (ATCC, CRL-6475) were sown at a concentration of 300-500 cells/well in 100 μl of growth medium (DMEM with phenol red, 10% FCS) on 96-well microtitre plates.
as §2

CHL-1 cells = assay: Cell proliferation assay (alamarBlue), CHL-1; type: cell-based; conditions: Homo sapiens; CHL-1 (melanoma, BRAF wild-type), 96 hours
Method: as §1
The CHL-1 cells (ATCC, CRL-9446) were sown at a concentration of 1000 cells/well in 100 μl of growth medium (DMEM with glutamine, 10% FCS) on 96-well microtitre plates.
as §2

IC50 [1] [nM] | IC50 (MOLM-13 cells) [nM] | IC50 (B16F10 cells) [nM] | Compound | IC50 (CHL-1 cells) [nM]
112 | 269 | 399 | COCCN1c2nc(Nc3cccc(S(=O)(=O)N4CCOCC4)c3)ccc2N(C)C(=O)C1C (racemic) [Example 49, 4-(2-methoxyethyl)-1,3-dimethyl-6-{[3-(morpholin-4-ylsulphonyl)phenyl]amino}-3,4-dihydropyrido[2,3-b]pyrazin-2(1H)-one] | 153
151 | 565 | 1300 | COCCN1c2nc(Nc3cccc(S(=O)(=O)N4CCN(C)CC4)c3)ccc2N(C)C(=O)C1C (racemic) [Example 53, 4-(2-methoxyethyl)-1,3-dimethyl-6-({3-[(4-methylpiperazin-1-yl)sulphonyl]phenyl}-amino)-3,4-dihydropyrido-[2,3-b]pyrazin-2(1H)-one] | 179
75 | 223 | 316 | COCCN1c2nc(Nc3cccc(S(=O)(=O)N4CCOCC4)c3)ccc2N(C)C(=O)[C@H]1C (stereo in doubt) [Example 111, (3R)-4-(2-methoxyethyl)-1,3-dimethyl-6-{[3-(morpholin-4-ylsulphonyl)phenyl]amino}-3,4-dihydropyrido[2,3-b]pyrazin-2(1H)-one] | 85
234 | 679 | 1140 | COc1ccc(C(=O)NC2CCN(C)CC2)cc1Nc1ccc2c(n1)N(C1CCOCC1)[C@H](C)C(=O)N2C [Example 16, 3-{[(3R)-1,3-Dimethyl-2-oxo-4-(tetrahydro-2H-pyran-4-yl)-1,2,3,4-tetrahydropyrido[2,3-b]pyrazin-6-yl]amino}-4-methoxy-N-(1-methylpiperidin-4-yl)benzamide] | 346
15 | 47 | 44 | CCNS(=O)(=O)c1cccc(Nc2ccc3c(n2)N(C2CCOCC2)[C@H](C)C(=O)N3C)c1 [Example 23, 3-{[(3R)-1,3-dimethyl-2-oxo-4-(tetrahydro-2H-pyran-4-yl)-1,2,3,4-tetrahydropyrido[2,3-b]pyrazin-6-yl]amino}-N-ethylbenzenesulphonamide] | 50
16 | 20 | 112 | C[C@@H]1C(=O)N(C)c2ccc(Nc3cccc(S(=O)(=O)N4CCCC4)c3)nc2N1C1CCN(C)CC1 [Example 24, (3R)-1,3-Dimethyl-4-(1-methylpiperidin-4-yl)-6-{[3-(pyrrolidin-1-ylsulphonyl)phenyl]amino}-3,4-dihydropyrido[2,3-b]pyrazin-2(1H)-one] | 13
16 | 18 | 43 | COc1ccc(S(=O)(=O)N2CCOCC2)cc1Nc1ccc2c(n1)N(C1CCN(C)CC1)[C@H](C)C(=O)N2C [Example 25, (3R)-6-{[2-Methoxy-5-(morpholin-4-ylsulphonyl)phenyl]amino}-1,3-dimethyl-4-(1-methylpiperidin-4-yl)-3,4-dihydropyrido[2,3-b]pyrazin-2(1H)-one] | 16
17 | 32 | 25 | C[C@@H]1C(=O)N(C)c2ccc(Nc3cccc(S(=O)(=O)NC4CC4)c3)nc2N1C1CCOCC1 [Example 26, N-Cyclopropyl-3-{[(3R)-1,3-dimethyl-2-oxo-4-(tetrahydro-2H-pyran-4-yl)-1,2,3,4-tetrahydropyrido[2,3-b]pyrazin-6-yl]amino}benzenesulphonamide] | 31
17 | 41 | 60 | C[C@@H]1C(=O)N(C)c2ccc(Nc3cccc(S(=O)(=O)N4CCCC4)c3)nc2N1C1CCOCC1 [Example 27, (3R)-1,3-Dimethyl-6-{[3-(pyrrolidin-1-ylsulphonyl)phenyl]amino}-4-(tetrahydro-2H-pyran-4-yl)-3,4-dihydropyrido[2,3-b]pyrazin-2(1H)-one] | 23
26 | 21 | 30 | COc1ccc(S(=O)(=O)N2CCOCC2)cc1Nc1ccc2c(n1)N(C1CCOCC1)[C@H](C)C(=O)N2C [Example 28, (3R)-6-{[2-Methoxy-5-(morpholin-4-ylsulphonyl)phenyl]amino}-1,3-dimethyl-4-(tetrahydro-2H-pyran-4-yl)-3,4-dihydropyrido[2,3-b]pyrazin-2(1H)-one] | 14
29 | 64 | 230 | C[C@@H]1C(=O)N(C)c2ccc(Nc3cccc(S(=O)(=O)N4CC(F)(F)C4)c3)nc2N1C1CCN(C)CC1 [Example 29, (3R)-6-({3-[(3,3-Difluoroazetidin-1-yl)sulphonyl]phenyl}amino)-1,3-dimethyl-4-(1-methylpiperidin-4-yl)-3,4-dihydropyrido[2,3-b]pyrazin-2(1H)-one] | 36
44 | 152 | 165 | COc1ccc(S(=O)(=O)N2CC3(COC3)C2)cc1Nc1ccc2c(n1)N(C1CCOCC1)[C@H](C)C(=O)N2C [Example 30, (3R)-6-{[2-Methoxy-5-(2-oxa-6-azaspiro[3.3]hept-6-ylsulphonyl)phenyl]amino}-1,3-dimethyl-4-(tetrahydro-2H-pyran-4-yl)-3,4-dihydropyrido[2,3-b]pyrazin-2(1H)-one] | 80
22 | 16 | 157 | C[C@@H]1C(=O)N(C)c2ccc(Nc3cccc(S(=O)(=O)NC4CCN(C)CC4)c3)nc2N1Cc1ccccc1 [Example 33, 3-{[(3R)-4-benzyl-1,3-dimethyl-2-oxo-1,2,3,4-tetrahydropyrido[2,3-b]pyrazin-6-yl]amino}-N-(1-methylpiperidin-4-yl)benzenesulphonamide] | 13
28 | 74 | 93 | C[C@@H]1C(=O)N(C)c2ccc(Nc3cccc(S(=O)(=O)N4CCN(CC(F)(F)F)CC4)c3)nc2N1C1CCOCC1 [Example 37, (3R)-1,3-dimethyl-4-(tetrahydro-2H-pyran-4-yl)-6-[(3-{[4-(2,2,2-trifluoroethyl)piperazin-1-yl]sulphonyl}phenyl)-amino]-3,4-dihydropyrido-[2,3-b]pyrazin-2(1H)-one] | 53
112 | 78 | 312 | CC(C)N1c2nc(Nc3cccc(S(=O)(=O)NCCN(C)C)c3)ccc2N(C)C(=O)[C@H]1C [Example 55, N-[2-(dimethylamino)-ethyl]-3-{[(3R)-4-isopropyl-1,3-dimethyl-2-oxo-1,2,3,4-tetrahydro-pyrido[2,3-b]pyrazin-6-yl]amino}benzene-sulphonamide] | 
144 | 1010 | 973 | CC(C)N1c2nc(Nc3cccc(C(=O)N4CCN(C)CC4)c3)ccc2N(C)C(=O)[C@H]1C [Example 77, (3R)-4-isopropl-1,3-dimethyl-6-({3-[(4-methylpiperazin-1-yl)carbonyl]phenyl}-amino)-3,4-dihydro-pyrido[2,3-b]pyrazin-2(1H)-one] | 
193 | 287 | 478 | CC(C)N1c2nc(Nc3cccc(C(=O)N[C@H]4CC[C@H](N5CCN(CC6CC6)CC5)CC4)c3)ccc2N(C)C(=O)[C@H]1C [Example 79, N-{trans-4-[4-(cyclo-propylmethyl)piperazin-1-yl]cyclohexyl}-3-{[(3R)-4-isopropyl-1,3-dimethyl-2-oxo-1,2,3,4-tetrahydropyrido[2,3-b]pyrazin-6-yl]amino}benzamide] | 
382 | 2080 | 1620 | CC(C)N1c2nc(Nc3cccc(C(=O)N4CCN(CC5CC5)CC4)c3)ccc2N(C)C(=O)[C@H]1C [Example 88, (3R)-6-[(3-{[4-(cyclo-propylmethyl)piperazin-1-yl]carbonyl}phenyl)amino]-4-isopropyl-1,3-dimethyl-3,4-dihydropyrido[2,3-b]pyrazin-2(1H)-one] | 
179 | 546 | 768 | Cc1nnc(-c2cccc(Nc3ccc4c(n3)N(C3CCOCC3)[C@H](C)C(=O)N4C)c2)o1 [Example 134, (3R)-1,3-Dimethyl-6-{[3-(5-methyl-1,3,4-oxadiazol-2-yl)phenyl]amino}-4-(tetrahydro-2H-pyran-4-yl)-3,4-dihydropyrido[2,3-b]pyrazin-2(1H)-one] | 
